In US20240043420A1, “7-AZAINDOLE COMPOUNDS FOR INHIBITION OF BCR-ABL TYROSINE KINASES” (EnLiven Therapeutics, Inc., priority 2020, published 2024):

Key:
[1] = target: T1, ABL1 (Homo sapiens, UniProt P00519); test: Luminescence-based ABL kinase assay (ADP-Glo, 300 μM ATP); type: biochemical
T1 construct: purchased Carna Biosciences
Procedure: (§1) Kinase activity of ABL1 was measured using the ADP-Glo system (Promega), which measures formation of ADP using a luminescence-based method. Compounds were serially diluted in DMSO. 20 nL of compound or DMSO only (high control, HC) were added to a 384-well plate (OptiPlate-384, PerkinElmer) using an Echo550 liquid handler (Labcyte). 15 μL of kinase solution (10 mM MgCl2, 0.01% Brij-35, 2 mM DTT, 0.05% BSA, 1 mM EGTA, 50 mM HEPES pH 7.5, and 3.325 nM ABL1 [Carna Biosciences]) were added to each well of the 384-well plate containing the compounds. No enzyme control wells were included (low control, LC). The plate was incubated at room temperature for 30 minutes. 5 μL of a second solution containing 10 mM MgCl2, 0.01% Brij-35, 2 mM DTT, 0.05% BSA, 1 mM EGTA, 50 mM HEPES pH 7.5, 6 μM Peptide 2 (Perkin Elmer, Cat No 760346), and 1.2 mM ATP were added to each well to start the kinase reaction. The plate was incubated for 90 minutes at room temperature. 20 μL of ADP-Glo reagent (Promega) were then added to each well and the plate was incubated for 40 minutes at room temperature. 40 μL of kinase detection reagent (Promega) was added to each well and the plate was incubated for an additional 45 minutes at room temperature. During this step, ADP was converted to ATP, a substrate for luciferase, to produce luminescence signal. Luminescence was measured on an Envision plate reader (Perkin Elmer). Luminescence signal positively correlates with kinase activity. The percent kinase activity was calculated as follows: percent kinase activity=100×(Lumsample−LumLC)/(LumHC−LumLC). As noted above, DMSO only and no enzyme wells were used as high and low controls, respectively. IC50 values were calculated using the XLFit software.

[2] = target: ABL1 (T315I) (Homo sapiens, UniProt P00519, T315I); test: Luminescence-based ABL kinase assay (ADP-Glo, 300 μM ATP), T315I mutant; type: biochemical
Procedure: as §1

SMILES	IC50 [1] [nM]	IC50 [2] [nM]
Nc1ccc(-c2c[nH]c3nc(NC(=O)C4CC4)ccc23)cn1 [Compound 40, N-[3-(6-aminopyridin-3-yl)-1H-pyrrolo[2,3-b]pyridin-6-yl]cyclopropanecarboxamide]	121	170
CNc1cc(C)c(-c2c[nH]c3nc(NC(=O)C4CC4)ccc23)cn1 [Compound 35, N-[3-[4-methyl-6-(methylamino)pyridin-3-yl]-1H-pyrrolo[2,3-b]pyridin-6-yl]cyclopropanecarboxamide]	599	774
COc1ncc(F)cc1-c1c[nH]c2nc(NC(=O)NCCN(C)C)ccc12 [Compound 80, 3-[2-(dimethylamino)ethyl]-1-[3-(5-fluoro-2-methoxypyridin-3-yl)-1H-pyrrolo[2,3-b]pyridin-6-yl]urea]	1050	659
Nc1ncccc1-c1c[nH]c2nc(NC(=O)C3CC3)ccc12 [Compound 36, N-[3-(2-aminopyridin-3-yl)-1H-pyrrolo[2,3-b]pyridin-6-yl]cyclopropanecarboxamide]	202	690
COc1ccccc1-c1c[nH]c2nc(NC(=O)[C@H]3C[C@@H]3CC#N)ccc12 (relative stereo) [Compound 107, trans-2-(cyanomethyl)-N-(3-(2-methoxyphenyl)-1H-pyrrolo[2,3-b]pyridin-6-yl)cyclopropane-1-carboxamide]	151	19.5
O=C(Nc1ccc2c(-c3ccc4c(c3)NCC4)c[nH]c2n1)C1CC1 [Compound 25, N-[3-(2,3-dihydro-1H-indol-6-yl)-1H-pyrrolo[2,3-b]pyridin-6-yl]cyclopropanecarboxamide]	776	74.3
COc1ccccc1-c1c[nH]c2nc(NC(=O)NCCC#N)ccc12 [Compound 104, 3-(2-cyanoethyl)-1-[3-(2-methoxyphenyl)-1H-pyrrolo[2,3-b]pyridin-6-yl]urea]	102	29.1
Cn1cc(-c2c[nH]c3nc(NC(=O)C4CC4)ccc23)ccc1=O [Compound 57, N-[3-(1-methyl-6-oxopyridin-3-yl)-1H-pyrrolo[2,3-b]pyridin-6-yl]cyclopropanecarboxamide]	1090	3870
O=C(Nc1ccc2c(-c3ccc4cc[nH]c4c3)c[nH]c2n1)C1CC1 [Compound 20, N-(3-(1H-indol-6-yl)-1H-pyrrolo[2,3-b]pyridin-6-yl)cyclopropanecarboxamide]	110	27.7
COc1c(-c2c[nH]c3nc(NC(=O)[C@@H]4C[C@@H]4F)ccc23)ccc2nccn12 [Compound 73, (1S,2S)-2-fluoro-N-(3-(5-methoxyimidazo[1,2-a]pyridin-6-yl)-1H-pyrrolo[2,3-b]pyridin-6-yl)cyclopropane-1-carboxamide]	2460	> 10000
Nc1cccc(-c2c[nH]c3nc(NC(=O)C4CC4)ccc23)n1 [Compound 38, N-(3-(6-aminopyridin-2-yl)-1H-pyrrolo[2,3-b]pyridin-6-yl)cyclopropanecarboxamide]	689	332
O=C(Nc1ccc2c(-c3cccnc3OCC3CC3)c[nH]c2n1)C1CC1F (single isomer, unassigned) [Example S148, Enantiomer 1, N-(3-(2-(cyclopropylmethoxy)pyridin-3-yl)-1H-pyrrolo[2,3-b]pyridin-6-yl)-2-fluorocyclopropane-1-carboxamide Enantiomer 1]	408	1810
COc1c(-c2c[nH]c3nc(NC(=O)C4CC4)ccc23)ccc2[nH]ncc12 [Compound 16, N-[3-(4-methoxy-1H-indazol-5-yl)-1H-pyrrolo[2,3-b]pyridin-6-yl]cyclopropanecarboxamide]	> 10000	> 10000
COc1c(F)cccc1-c1n[nH]c2nc(NC(=O)[C@@H]3C[C@@H]3F)ccc12 [Compound 100, (1S,2S)-2-fluoro-N-(3-(3-fluoro-2-methoxyphenyl)-1H-pyrazolo[3,4-b]pyridin-6-yl)cyclopropane-1-carboxamide]	98.2	105
CNc1ccc(-c2c[nH]c3nc(NC(=O)C4CC4)ccc23)c(OC)n1 [Compound 30, N-[3-[2-methoxy-6-(methylamino)pyridin-3-yl]-1H-pyrrolo[2,3-b]pyridin-6-yl]cyclopropanecarboxamide]	148	90.2
CNc1cccc(-c2c[nH]c3nc(NC(=O)C4CC4)ccc23)n1 [Compound 39, N-(3-(6-(methylamino)pyridin-2-yl)-1H-pyrrolo[2,3-b]pyridin-6-yl)cyclopropanecarboxamide]	195	245
O=C(Nc1ccc2c(-c3c(F)cccc3F)c[nH]c2n1)C1CC1 [Compound 46, N-(3-(2,6-difluorophenyl)-1H-pyrrolo[2,3-b]pyridin-6-yl)cyclopropanecarboxamide]	86.4	20.6
COc1ncccc1-c1c(C)[nH]c2nc(NC(=O)[C@@H]3C[C@@H]3F)ccc12 [Compound 89, (1S,2S)-2-fluoro-N-(3-(2-methoxypyridin-3-yl)-2-methyl-1H-pyrrolo[2,3-b]pyridin-6-yl)cyclopropane-1-carboxamide]	337	219
Cc1cc(N)ncc1-c1c[nH]c2nc(NC(=O)C3CC3)ccc12 [Compound 34, N-[3-(6-amino-4-methylpyridin-3-yl)-1H-pyrrolo[2,3-b]pyridin-6-yl]cyclopropanecarboxamide]	159	731
COc1ccccc1-c1c[nH]c2nc(NC(=O)NCCN(C)C)ccc12 [Compound 97, 3-[2-(dimethylamino)ethyl]-1-[3-(2-methoxyphenyl)-1H-pyrrolo[2,3-b]pyridin-6-yl]urea]	199	61.6

The next compounds have a lower IC50 [1] than those just listed; values first:

IC50 [1] [nM]	IC50 [2] [nM]	SMILES
24.9	97.1	COc1nc2nccn2cc1-c1c[nH]c2nc(NC(=O)[C@@H]3C[C@@H]3F)ccc12 [Compound 128, (1S,2S)-2-fluoro-N-(3-(7-methoxyimidazo[1,2-a]pyrimidin-6-yl)-1H-pyrrolo[2,3-b]pyridin-6-yl)cyclopropane-1-carboxamide]
73.4	19.9	COc1ccccc1-c1c[nH]c2nc(NC(=O)NCC3CC3)ccc12 [Compound 122, 3-(cyclopropylmethyl)-1-[3-(2-methoxyphenyl)-1H-pyrrolo[2,3-b]pyridin-6-yl]urea]
5.3	2.94	COc1nc2[nH]ccc2cc1-c1c[nH]c2nc(NC(=O)[C@@H]3C[C@@H]3F)ccc12 [Compound 93, (1S,2S)-2-fluoro-N-(6′-methoxy-1H,1′H-[3,5′-bipyrrolo[2,3-b]pyridin]-6-yl)cyclopropane-1-carboxamide]
33	14.5	O=C(Nc1ccc2c(-c3ccc4[nH]ccc4c3)c[nH]c2n1)C1CC1 [Compound 18, N-[3-(1H-indol-5-yl)-1H-pyrrolo[2,3-b]pyridin-6-yl]cyclopropanecarboxamide]
64.8	227	COc1c(-c2c[nH]c3nc(NC(=O)[C@@H]4C[C@@H]4F)ccc23)ccc2ncnn12 [Compound 134, (1S,2S)-2-fluoro-N-(3-[5-methoxy-[1,2,4]triazolo[1,5-a]pyridin-6-yl]-1H-pyrrolo[2,3-b]pyridin-6-yl)cyclopropane-1-carboxamide]
51.4	150	COc1c(-c2c[nH]c3nc(NC(=O)[C@@H]4C[C@@H]4F)ccc23)ccn2ccnc12 [Compound 114, (1S,2S)-2-fluoro-N-(3-[8-methoxyimidazo[1,2-a]pyridin-7-yl]-1H-pyrrolo[2,3-b]pyridin-6-yl)cyclopropane-1-carboxamide]
56.5	17.6	COc1ccccc1-c1c[nH]c2nc(NC(=O)NC3CC3)ccc12 [Compound 123, 3-cyclopropyl-1-[3-(2-methoxyphenyl)-1H-pyrrolo[2,3-b]pyridin-6-yl]urea]
65.5	60.8	COc1c(F)cc(F)c(OC)c1-c1c[nH]c2nc(NC(=O)[C@@H]3C[C@@H]3F)ccc12 [Compound 120, (1S,2S)—N-[3-(3,5-difluoro-2,6-dimethoxyphenyl)-1H-pyrrolo[2,3-b]pyridin-6-yl]-2-fluorocyclopropane-1-carboxamide]
32.9	35.8	COc1cccc(OC)c1-c1c[nH]c2nc(NC(=O)NCC3CNC3)ccc12 [Compound 129, 1-(azetidin-3-ylmethyl)-3-(3-(2,6-dimethoxyphenyl)-1H-pyrrolo[2,3-b]pyridin-6-yl)urea]
30	27.2	COc1cccc(OC)c1-c1c[nH]c2nc(NC(=O)C3CC3CN3CCNCC3)ccc12 (single isomer, unassigned) [Example S150, Enantiomer 2, N-[3-(2,6-dimethoxyphenyl)-1H-pyrrolo[2,3-b]pyridin-6-yl]-2-(piperazin-1-ylmethyl)cyclopropane-1-carboxamide]
